In PubChem BioAssay AID306 (DTP/NCI, 2004):
Several values for one entry are separate records, joined by “and”; a condition that tells them apart may be missing. Equal values may be shown once. Toxic doses and inconclusive results are not listed. How the source made its calls: active means survival T/C of 150% or more; inactive means T/C below 125% in these data.

Tested on: BDF1 mice, L1210 Methyl-GAG-resistant leukemia, survival T/C
Assay: NCI In Vivo Anticancer Drug Screen. Data for tumor model L1210 Leukemia resistant to Methyl-GAG; NSC 32946 (subcutaneous) in B6D2F1 (BDF1) mice
Conditions: endpoint: mean survival time, higher = longer survival
Method: The antitumor activity of compounds was measured in mice bearing transplantable tumors. Survival or tumor size were measured and the results are expressed as the measurement made in the treated group (T) divided by the measurement made in the vehicle treated control group (C). The tumor model used in this assay is L1210 Leukemia resistant to Methyl-GAG; NSC 32946 (subcutaneous) in B6D2F1 (BDF1) mice

[1] = dose: 6.25 mg/kg/injection, schedule: Q01DX Z (ip), vehicle: carboxymethylcellulose (CMC)
[2] = dose: 12.5 mg/kg/injection, schedule: Q01DX Z (ip), vehicle: carboxymethylcellulose (CMC)
[3] = dose: 12.5 mg/kg/injection, schedule: Q01DX Z (ip), vehicle: water
[4] = dose: 25.0 mg/kg/injection, schedule: Q01DX Z (ip), vehicle: carboxymethylcellulose (CMC)
[5] = dose: 25.0 mg/kg/injection, schedule: Q01DX Z (ip), vehicle: water
[6] = dose: 50.0 mg/kg/injection, schedule: Q01DX Z (ip), vehicle: carboxymethylcellulose (CMC)
[7] = dose: 50.0 mg/kg/injection, schedule: Q01DX Z (ip), vehicle: water
[8] = dose: 100.0 mg/kg/injection, schedule: Q01DX Z (ip), vehicle: carboxymethylcellulose (CMC)
[9] = dose: 2.0 mg/kg/injection, schedule: Q01DX Z (ip), vehicle: carboxymethylcellulose (CMC)
[10] = dose: 4.0 mg/kg/injection, schedule: Q01DX Z (ip), vehicle: carboxymethylcellulose (CMC)

Measured: T/C

CN(C)c1ccc(/C=C/c2ccnc3ccccc23)cc1
inactive: dose: 3.1 mg/kg/injection, schedule: Q01DX Z (ip), vehicle: water 102 % of control | dose: 3.12 mg/kg/injection, schedule: Q01DX Z (ip), vehicle: carboxymethylcellulose (CMC) 100 % of control | [1] 96 % of control | dose: 6.25 mg/kg/injection, schedule: Q01DX Z (ip), vehicle: water 97 % of control | [2] 94 % of control | [3] 97 % of control | [4] 100 % of control | [5] 100 % of control | [6] 94 % of control | [7] 91 % of control | [8] 100 % of control

O=C(Nc1ccc(C2=NCCCN2)cc1)c1ccc(NC(=O)c2ccc(C3=NCCCN3)cc2)cc1
inactive: dose: 0.24 mg/kg/injection, schedule: Q01DX Z (ip), vehicle: carboxymethylcellulose (CMC) 97 % of control | dose: 0.47 mg/kg/injection, schedule: Q01DX Z (ip), vehicle: carboxymethylcellulose (CMC) 101 % of control | dose: 0.95 mg/kg/injection, schedule: Q01DX Z (ip), vehicle: carboxymethylcellulose (CMC) 104 % of control | dose: 1.9 mg/kg/injection, schedule: Q01DX Z (ip), vehicle: carboxymethylcellulose (CMC) 98 % of control | dose: 15.6 mg/kg/injection, schedule: Q01DX Z (ip), vehicle: carboxymethylcellulose (CMC) 112 % of control and 122 % of control
active: dose: 1.95 mg/kg/injection, schedule: Q01DX Z (ip), vehicle: carboxymethylcellulose (CMC) 175 % of control and 192 % of control | dose: 3.9 mg/kg/injection, schedule: Q01DX Z (ip), vehicle: carboxymethylcellulose (CMC) 169 % of control and 232 % of control | dose: 7.8 mg/kg/injection, schedule: Q01DX Z (ip), vehicle: carboxymethylcellulose (CMC) 216 % of control

CC[C@@H](c1ccc(O)cc1)[C@@H](CC)c1ccc(O)cc1
inactive: dose: 16.0 mg/kg/injection, schedule: Q01DX Z (sc), vehicle: steriod suspending solution 96 % of control | dose: 32.0 mg/kg/injection, schedule: Q01DX Z (sc), vehicle: steriod suspending solution 96 % of control | dose: 62.5 mg/kg/injection, schedule: Q01DX Z (sc), vehicle: steriod suspending solution 100 % of control | dose: 125.0 mg/kg/injection, schedule: Q01DX Z (sc), vehicle: steriod suspending solution 100 % of control | dose: 250.0 mg/kg/injection, schedule: Q01DX Z (sc), vehicle: steriod suspending solution 108 % of control | dose: 500.0 mg/kg/injection, schedule: Q01DX Z (sc), vehicle: steriod suspending solution 98 % of control and 101 % of control | dose: 1000.0 mg/kg/injection, schedule: Q01DX Z (sc), vehicle: steriod suspending solution 95 % of control

Nc1nc(=S)c2[nH]cnc2[nH]1
active: [9] 164 % of control and 168 % of control
inactive: dose: 0.12 mg/kg/injection, schedule: Q01DX Z (ip), vehicle: carboxymethylcellulose (CMC) 98 % of control | dose: 0.25 mg/kg/injection, schedule: Q01DX Z (ip), vehicle: carboxymethylcellulose (CMC) 93 % of control | dose: 0.5 mg/kg/injection, schedule: Q01DX Z (ip), vehicle: carboxymethylcellulose (CMC) 96 % of control | [10] 118 % of control

Nc1nc(N)c2nc(CNc3ccc(C(=O)NC(CCC(=O)O)C(=O)O)cc3)cnc2n1 (stereo not given)
active: dose: 63.0 micrograms/kg/injection, schedule: Q01DX Z (ip), vehicle: alkali diluted with saline 187 % of control
inactive: dose: 2.0 micrograms/kg/injection, schedule: Q01DX Z (ip), vehicle: alkali diluted with saline 98 % of control | dose: 4.0 micrograms/kg/injection, schedule: Q01DX Z (ip), vehicle: alkali diluted with saline 100 % of control | dose: 16.0 micrograms/kg/injection, schedule: Q01DX Z (ip), vehicle: alkali diluted with saline 110 % of control | dose: 31.0 micrograms/kg/injection, schedule: Q01DX Z (ip), vehicle: alkali diluted with saline 88 % of control | dose: 125.0 micrograms/kg/injection, schedule: Q01DX Z (ip), vehicle: alkali diluted with saline 94 % of control

Cn1cnc([N+](=O)[O-])c1Sc1nc(N)nc2nc[nH]c12
active: [10] 162 % of control
inactive: dose: 1.0 mg/kg/injection, schedule: Q01DX Z (ip), vehicle: carboxymethylcellulose (CMC) 98 % of control | [9] 106 % of control | dose: 8.0 mg/kg/injection, schedule: Q01DX Z (ip), vehicle: carboxymethylcellulose (CMC) 88 % of control

O=CCC(O)C(O)C(O)CO (stereo not given)
inactive: dose: 62.5 mg/kg/injection, schedule: Q01DX Z (ip), vehicle: carboxymethylcellulose (CMC) 98 % of control | dose: 125.0 mg/kg/injection, schedule: Q01DX Z (ip), vehicle: carboxymethylcellulose (CMC) 103 % of control | dose: 250.0 mg/kg/injection, schedule: Q01DX Z (ip), vehicle: carboxymethylcellulose (CMC) 101 % of control | dose: 500.0 mg/kg/injection, schedule: Q01DX Z (ip), vehicle: carboxymethylcellulose (CMC) 119 % of control | dose: 1000.0 mg/kg/injection, schedule: Q01DX Z (ip), vehicle: carboxymethylcellulose (CMC) 108 % of control | dose: 2000.0 mg/kg/injection, schedule: Q01DX Z (ip), vehicle: carboxymethylcellulose (CMC) 90 % of control

C[C@@H]1C[C@@H]([C@H](O)CC2CC(=O)NC(=O)C2)C(=O)[C@@H](C)C1
inactive: dose: 9.4 mg/kg/injection, schedule: Q01DX Z (ip), vehicle: water 90 % of control | [3] 114 % of control and 122 % of control (2×) | dose: 18.8 mg/kg/injection, schedule: Q01DX Z (ip), vehicle: water 93 % of control | dose: 37.5 mg/kg/injection, schedule: Q01DX Z (ip), vehicle: water 124 % of control | [7] 108 % of control
active: [5] 156 % of control

C[n+]1c2ccccc2nc2c(N)cc(N)cc21
inactive: dose: 1.6 mg/kg/injection, schedule: Q01DX Z (ip), vehicle: carboxymethylcellulose (CMC) 101 % of control | dose: 3.1 mg/kg/injection, schedule: Q01DX Z (ip), vehicle: carboxymethylcellulose (CMC) 102 % of control | dose: 6.3 mg/kg/injection, schedule: Q01DX Z (ip), vehicle: carboxymethylcellulose (CMC) 98 % of control and 104 % of control | [2] 104 % of control | [4] 104 % of control

C1CN1c1nc(N2CC2)nc(N2CC2)n1
inactive: dose: 62.5 micrograms/kg/injection, schedule: Q01DX Z (ip), vehicle: saline 96 % of control | dose: 250.0 micrograms/kg/injection, schedule: Q01DX Z (ip), vehicle: saline 97 % of control | dose: 1000.0 micrograms/kg/injection, schedule: Q01DX Z (ip), vehicle: saline 110 % of control

O=C(O)CCCc1ccc(N(CCCl)CCCl)cc1
inactive: [1] 91 % of control | [2] 98 % of control | [4] 104 % of control

COS(C)(=O)=O
inactive: [3] 101 % of control | [5] 98 % of control and 99 % of control | [7] 103 % of control and 112 % of control

CS(=O)(=O)OCCCCOS(C)(=O)=O
inactive: dose: 0.4 mg/kg/injection, schedule: Q01DX Z (ip), vehicle: methylcellulose (MC) 102 % of control | dose: 1.6 mg/kg/injection, schedule: Q01DX Z (ip), vehicle: methylcellulose (MC) 102 % of control | dose: 3.2 mg/kg/injection, schedule: Q01DX Z (ip), vehicle: methylcellulose (MC) 86 % of control | dose: 6.4 mg/kg/injection, schedule: Q01DX Z (ip), vehicle: methylcellulose (MC) 88 % of control and 102 % of control

C[C@H](N)C(=O)N[C@@H]1[C@H]2C(=C(O)C[C@@H](O)[C@@H]2O)C(=O)O[C@@H]1C
inactive: dose: 31.25 mg/kg/injection, schedule: Q01DX Z (ip), vehicle: saline 96 % of control | dose: 125.0 mg/kg/injection, schedule: Q01DX Z (ip), vehicle: saline 102 % of control | dose: 250.0 mg/kg/injection, schedule: Q01DX Z (ip), vehicle: saline 116 % of control | dose: 2000.0 mg/kg/injection, schedule: Q01DX Z (ip), vehicle: saline 96 % of control

C[C@@H]1C[C@H]2CC[C@H](O2)[C@H](C)C(=O)O[C@@H](C)C[C@@H]2CC[C@@H](O2)[C@@H](C)C(=O)O[C@H](C)C[C@H]2CC[C@H](O2)[C@H](C)C(=O)O[C@@H](C)C[C@@H]2CC[C@@H](O2)[C@@H](C)C(=O)O1
inactive: [4] 97 % of control | [6] 91 % of control | [8] 91 % of control | dose: 200.0 mg/kg/injection, schedule: Q01DX Z (ip), vehicle: carboxymethylcellulose (CMC) 97 % of control

CS(=O)(=O)OCC(O)C(O)COS(C)(=O)=O (stereo not given)
inactive: dose: 99.0 mg/kg/injection, schedule: Q01DX Z (ip), vehicle: saline 101 % of control | dose: 188.0 mg/kg/injection, schedule: Q01DX Z (ip), vehicle: saline 101 % of control | dose: 375.0 mg/kg/injection, schedule: Q01DX Z (ip), vehicle: saline 101 % of control | dose: 750.0 mg/kg/injection, schedule: Q01DX Z (ip), vehicle: saline 117 % of control and 120 % of control | dose: 1500.0 mg/kg/injection, schedule: Q01DX Z (ip), vehicle: saline 109 % of control and 120 % of control | dose: 3000.0 mg/kg/injection, schedule: Q01DX Z (ip), vehicle: saline 112 % of control
